Source: patent US6355799B1, “Substituted benzene compounds, process for their preparation, and herbicidal and defoliant compositions containing them” (ISK Americas Incorporated, priority 1997, dated 2002)

Key:
Type in all cases: in vivo
[1] = tested on: upland rice (Oryza sp., var. Tebonnet, RICE); experiment: Post-emerge test, crop safety; conditions: post-emerge, 14 days after application, rating scale 0-100
Summary of the method: (§1)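 Applied at 15–1000 g ai/ha from acetone in 187 l/ha spray volume. Post-emergence applications included 0.25% v/v non-ionic surfactant and reached plants sown 8–21 days before. Pre-emergence applications were incorporated by surface watering. Efficacy or crop damage was rated on a 0–100 scale after 14 days.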

[2] = tested on: field corn (Zea mays L., var. Dekalb 535, CORN); experiment: Post-emerge test, crop safety; conditions: post-emerge, 14 days after application, rating scale 0-100
Summary of the method: as §1

[3] = tested on: ivyleaf morningglory (Ipomoea hederacea, IPOHE); experiment: Pre-emerge test, greenhouse herbicide activity screening; conditions: pre-emerge, 14 days after application, rating scale 0-100
Summary of the method: as §1

[4] = tested on: lambsquarters (Chenopodium album, CHEAL); experiment: as above; conditions: pre-emerge, 14 days after application, rating scale 0-100
Summary of the method: as §1

[5] = tested on: green foxtail (Setaria viridis, SETVI); experiment: as above; conditions: pre-emerge, 14 days after application, rating scale 0-100
Summary of the method: as §1

[6] = tested on: large crabgrass (Digitaria sanguinalis, DIGSA); experiment: as above; conditions: pre-emerge, 14 days after application, rating scale 0-100
Summary of the method: as §1

[7] = tested on: barnyardgrass (Echinochloa crus-galli, ECHCG); experiment: as above; conditions: pre-emerge, 14 days after application, rating scale 0-100
Summary of the method: as §1

[8] = tested on: johnsongrass (Sorghum halepense, SORHA); experiment: as above; conditions: pre-emerge, 14 days after application, rating scale 0-100
Summary of the method: as §1

[9] = tested on: velvetleaf (Abutilon theophrasti, ABUTH); experiment: as above; conditions: pre-emerge, 14 days after application, rating scale 0-100
Summary of the method: as §1

[10] = tested on: sicklepod (Cassia obtusifolia, CASOB); experiment: as above; conditions: pre-emerge, 14 days after application, rating scale 0-100
Summary of the method: as §1

[11] = tested on: redroot pigweed (Amaranthus retroflexus, AMARE); experiment: Post-emerge test, greenhouse herbicide activity screening; conditions: post-emerge, 14 days after application
Summary of the method: (§2)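 Visual ratings on a 0-100 scale (0 no damage, 100 all plants dead) were taken at 14 days after treatment. Rates of 15-1000 g ai/ha in acetone, 187 l/ha, were sprayed onto soil one day after planting (pre-emerge) or onto 2-3 leaf plants with 0.25% v/v surfactant (post-emerge).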

[12] = tested on: ivyleaf morningglory (Ipomoea hederacea, IPOHE); experiment: as above; conditions: post-emerge, 14 days after application, rating scale 0-100
Summary of the method: as §2

[13] = tested on: lambsquarters (Chenopodium album, CHEAL); experiment: as above; conditions: post-emerge, 14 days after application, rating scale 0-100
Summary of the method: as §2

[14] = tested on: green foxtail (Setaria viridis, SETVI); experiment: as above; conditions: post-emerge, 14 days after application, rating scale 0-100
Summary of the method: as §2

[15] = tested on: large crabgrass (Digitaria sanguinalis, DIGSA); experiment: as above; conditions: post-emerge, 14 days after application, rating scale 0-100
Summary of the method: as §2

[16] = tested on: barnyardgrass (Echinochloa crus-galli, ECHCG); experiment: as above; conditions: post-emerge, 14 days after application, rating scale 0-100
Summary of the method: as §2

[17] = tested on: johnsongrass (Sorghum halepense, SORHA); experiment: as above; conditions: post-emerge, 14 days after application, rating scale 0-100
Summary of the method: as §2

[18] = tested on: velvetleaf (Abutilon theophrasti, ABUTH); experiment: as above; conditions: post-emerge, 14 days after application, rating scale 0-100
Summary of the method: as §2

[19] = tested on: sicklepod (Cassia obtusifolia, CASOB); experiment: as above; conditions: post-emerge, 14 days after application, rating scale 0-100
Summary of the method: as §2

[20] = tested on: redroot pigweed (Amaranthus retroflexus, AMARE); experiment: Pre-emerge test, greenhouse herbicide activity screening; conditions: pre-emerge, 14 days after application, rating scale 0-100
Summary of the method: (§3)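 Rating: 0–100 visual injury, 14 DAA. Application: acetone, 187 l/ha, 15–1000 g ai/ha, flat-fan track sprayer with nozzle 40–45 cm above soil or canopy. Post-emerge runs used 0.25% v/v surfactant on 2–3 leaf plants.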

[21] = tested on: upland rice (Oryza sp., var. Tebonnet, RICE); experiment: Pre-emerge test, crop safety; conditions: pre-emerge, 14 days after application, rating scale 0-100
Summary of the method: as §3

[22] = tested on: field corn (Zea mays L., var. Dekalb 535, CORN); experiment: Pre-emerge test, crop safety; conditions: pre-emerge, 14 days after application, rating scale 0-100
Summary of the method: as §3

## COc1cc(Cl)cc(Cl)c1-n1c(=O)cc(C(F)(F)F)n(C)c1=O [16-2]
[1]; 63 g ai/ha
  Post-emerge Herbicidal Activity RICE (crop damage rating): 0
[1]; 250 g ai/ha
  Post-emerge Herbicidal Activity RICE (crop damage rating): 20
[2]; 63 g ai/ha
  Post-emerge Herbicidal Activity CORN (crop damage rating): 0
[2]; 250 g ai/ha
  Post-emerge Herbicidal Activity CORN (crop damage rating): 10
[3]; 63 g ai/ha
  phytotoxicity rating IPOHE: 10
[3]; 250 g ai/ha
  phytotoxicity rating IPOHE: 50
[4]; 63 g ai/ha
  phytotoxicity rating CHEAL: 80
[4]; 250 g ai/ha
  phytotoxicity rating CHEAL: 100
[5]; 63 g ai/ha
  phytotoxicity rating SETVI: 10
[5]; 250 g ai/ha
  phytotoxicity rating SETVI: 60
[6]; 63 g ai/ha
  phytotoxicity rating DIGSA: 0
[6]; 250 g ai/ha
  phytotoxicity rating DIGSA: 50
[7]; 63 g ai/ha
  phytotoxicity rating ECHCG: 0
[7]; 250 g ai/ha
  phytotoxicity rating ECHCG: 10
[8]; 63 g ai/ha
  phytotoxicity rating SORHA: 0
[8]; 250 g ai/ha
  phytotoxicity rating SORHA: 30
[9]; 63 g ai/ha
  phytotoxicity rating ABUTH: 75
[9]; 250 g ai/ha
  phytotoxicity rating ABUTH: 100
[10]; 63 g ai/ha
  phytotoxicity rating CASOB: 0
[10]; 250 g ai/ha
  phytotoxicity rating CASOB: 60
[11]; 63 g ai/ha, rating scale 0-100 (0 no damage, 100 complete death)
  Post-emerge Herbicidal Activity AMARE (phytotoxicity rating): 60
[11]; 250 g ai/ha, rating scale 0-100
  Post-emerge Herbicidal Activity AMARE (phytotoxicity rating): 60
[12]; 63 g ai/ha
  Post-emerge Herbicidal Activity IPOHE (phytotoxicity rating): 0
[12]; 250 g ai/ha
  Post-emerge Herbicidal Activity IPOHE (phytotoxicity rating): 0
[13]; 63 g ai/ha
  Post-emerge Herbicidal Activity CHEAL (phytotoxicity rating): 30
[13]; 250 g ai/ha
  Post-emerge Herbicidal Activity CHEAL (phytotoxicity rating): 70
[14]; 63 g ai/ha
  Post-emerge Herbicidal Activity SETVI (phytotoxicity rating): 0
[14]; 250 g ai/ha
  Post-emerge Herbicidal Activity SETVI (phytotoxicity rating): 0
[15]; 63 g ai/ha
  Post-emerge Herbicidal Activity DIGSA (phytotoxicity rating): 0
[15]; 250 g ai/ha
  Post-emerge Herbicidal Activity DIGSA (phytotoxicity rating): 0
[16]; 63 g ai/ha
  Post-emerge Herbicidal Activity ECHCG (phytotoxicity rating): 0
[16]; 250 g ai/ha
  Post-emerge Herbicidal Activity ECHCG (phytotoxicity rating): 0
[17]; 63 g ai/ha
  Post-emerge Herbicidal Activity SORHA (phytotoxicity rating): 0
[17]; 250 g ai/ha
  Post-emerge Herbicidal Activity SORHA (phytotoxicity rating): 0
[18]; 63 g ai/ha
  Post-emerge Herbicidal Activity ABUTH (phytotoxicity rating): 40
[18]; 250 g ai/ha
  Post-emerge Herbicidal Activity ABUTH (phytotoxicity rating): 70
[19]; 63 g ai/ha
  Post-emerge Herbicidal Activity CASOB (phytotoxicity rating): 0
[19]; 250 g ai/ha
  Post-emerge Herbicidal Activity CASOB (phytotoxicity rating): 10
[20]; 63 g ai/ha
  phytotoxicity rating AMARE: 40
[20]; 250 g ai/ha
  phytotoxicity rating AMARE: 100
[21]; 63 g ai/ha
  phytotoxicity rating RICE: 0
[21]; 250 g ai/ha
  phytotoxicity rating RICE: 0
[22]; 63 g ai/ha
  phytotoxicity rating CORN: 0
[22]; 250 g ai/ha
  phytotoxicity rating CORN: 0
